Data published in patent US9730940B2, “Purine inhibitors of human phosphatidylinositol 3-kinase delta” (priority 2012, dated 2017).

The compounds below were run against PI3K-alpha (Homo sapiens (Human), UniProt P42336) (assay: HTRF PI3K biochemical assay, alpha isoform). Details: ratio PI3K-alpha IC50 value/PI3K-delta IC50 value.
Sequence of PI3K-alpha (P42336 whole entry, looked up, canonical isoform): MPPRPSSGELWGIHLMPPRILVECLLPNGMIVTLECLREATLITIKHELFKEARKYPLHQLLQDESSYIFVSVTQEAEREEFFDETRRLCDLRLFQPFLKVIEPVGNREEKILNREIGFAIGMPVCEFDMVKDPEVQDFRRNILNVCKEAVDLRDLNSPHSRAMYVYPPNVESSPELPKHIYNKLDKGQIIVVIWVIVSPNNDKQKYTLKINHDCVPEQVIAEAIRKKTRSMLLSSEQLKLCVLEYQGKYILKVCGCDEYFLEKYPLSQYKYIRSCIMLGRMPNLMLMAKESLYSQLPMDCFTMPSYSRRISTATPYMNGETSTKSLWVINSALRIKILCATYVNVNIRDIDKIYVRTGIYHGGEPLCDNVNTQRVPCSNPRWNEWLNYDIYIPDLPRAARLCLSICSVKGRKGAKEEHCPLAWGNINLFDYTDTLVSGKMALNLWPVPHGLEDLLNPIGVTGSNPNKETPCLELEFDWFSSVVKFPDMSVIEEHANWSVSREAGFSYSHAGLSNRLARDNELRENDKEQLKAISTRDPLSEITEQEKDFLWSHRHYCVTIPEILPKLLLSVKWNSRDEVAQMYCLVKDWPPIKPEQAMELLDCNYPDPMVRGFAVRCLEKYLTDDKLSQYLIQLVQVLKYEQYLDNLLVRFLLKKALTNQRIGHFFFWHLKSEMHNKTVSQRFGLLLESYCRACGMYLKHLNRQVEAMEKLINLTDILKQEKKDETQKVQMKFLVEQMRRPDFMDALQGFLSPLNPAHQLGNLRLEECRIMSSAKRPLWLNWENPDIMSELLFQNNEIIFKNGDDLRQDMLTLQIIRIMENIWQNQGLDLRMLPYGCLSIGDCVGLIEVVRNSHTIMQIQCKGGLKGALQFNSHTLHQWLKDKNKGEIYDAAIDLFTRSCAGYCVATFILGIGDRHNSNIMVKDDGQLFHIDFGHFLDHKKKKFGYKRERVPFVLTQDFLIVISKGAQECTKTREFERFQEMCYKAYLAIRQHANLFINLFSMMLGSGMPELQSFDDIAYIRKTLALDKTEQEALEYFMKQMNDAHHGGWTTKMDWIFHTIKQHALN
Sequence of PI3K-alpha (P27986 whole entry partner, looked up, canonical isoform): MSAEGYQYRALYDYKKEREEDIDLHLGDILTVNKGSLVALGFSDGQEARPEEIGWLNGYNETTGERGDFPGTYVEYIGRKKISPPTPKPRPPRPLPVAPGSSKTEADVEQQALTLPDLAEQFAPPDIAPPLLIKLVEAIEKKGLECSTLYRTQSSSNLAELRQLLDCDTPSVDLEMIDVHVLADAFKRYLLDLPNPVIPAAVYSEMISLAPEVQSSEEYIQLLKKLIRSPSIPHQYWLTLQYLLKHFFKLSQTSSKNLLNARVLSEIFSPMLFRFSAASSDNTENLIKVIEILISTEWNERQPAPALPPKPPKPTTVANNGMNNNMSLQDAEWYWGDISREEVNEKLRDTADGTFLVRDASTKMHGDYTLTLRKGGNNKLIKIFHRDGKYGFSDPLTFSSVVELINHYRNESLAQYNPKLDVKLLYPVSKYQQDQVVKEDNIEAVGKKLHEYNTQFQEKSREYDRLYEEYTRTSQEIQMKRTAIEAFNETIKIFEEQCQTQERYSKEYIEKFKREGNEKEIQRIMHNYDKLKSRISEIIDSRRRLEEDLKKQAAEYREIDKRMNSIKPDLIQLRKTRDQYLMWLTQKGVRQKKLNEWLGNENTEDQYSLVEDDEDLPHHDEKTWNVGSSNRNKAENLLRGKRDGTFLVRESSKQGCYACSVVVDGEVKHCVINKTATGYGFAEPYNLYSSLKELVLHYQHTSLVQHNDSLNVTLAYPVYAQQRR

SMILES | Relative Selectivity versus PI3Kalpha
CCn1c(-c2cnc(C)nc2)nc2c(O[C@H]3CCN(c4cccc(F)c4)C3)ncnc21 [Compound 7-21, 9-ethyl-6-{[(3S)-1-(3-fluorophenyl)pyrrolidin-3-yl]oxy}-8-(2-methylpyrimidin-5-yl)-9H-purine] | >10
CCn1c(-c2cnc(C)nc2)nc2c(O[C@H]3CCN(c4nccs4)C3)ncnc21 [Compound 7-22, 9-ethyl-8-(2-methylpyrimidin-5-yl)-6-{[(3S)-1-(1,3-thiazol-2-yl)pyrrolidin-3-yl]oxy}-9H-purine] | >10
CCn1c(-c2cnc(C)nc2)nc2c(O[C@H]3CCN(c4cncnc4)C3)ncnc21 [Compound 7-23, 9-ethyl-8-(2-methylpyrimidin-5-yl)-6-{[(3S)-1-pyrimidin-5-ylpyrrolidin-3-yl]oxy}-9H-purine] | >10
CCn1c(-c2cnc(C)nc2)nc2c(O[C@H]3CCN(c4cccnc4)C3)ncnc21 [Compound 7-24, 9-ethyl-8-(2-methylpyrimidin-5-yl)-6-{[(3S)-1-pyridin-3-ylprrolidin-3-yl]oxy}-9H-purine] | >10
CCn1c(-c2cnc(C)nc2)nc2c(O[C@H]3CCN(c4ccc5cnoc5c4)C3)ncnc21 [Compound 7-25, 6-{[(3S)-1-(1,2-benzisoxazol-6-yl)pyrrolidin-3-yl]oxy}-9-ethyl-8-(2-methylpyrimidin-5-yl)-9H-purine] | >10
CCn1c(-c2cnc(C)nc2)nc2c(O[C@H]3CCN(c4cnccn4)C3)ncnc21 [Compound 7-26, 9-ethyl-8-(2-methylpyrimidin-5-yl)-6-{[(3S)-1-pyrazin-2-ylpyrrolidin-3-yl]oxy}-9H-purine] | >10
CCn1c(-c2cnc(C)nc2)nc2c(O[C@H]3CCCN(c4ccccn4)C3)ncnc21 [Compound 7-27, 9-ethyl-8-(2-methylpyrimidin-5-yl)-6-{[(3S)-1-pyridin-2-ylpiperidin-3-yl]oxy}-9H-purine] | >10
CCn1ncc(-c2nc3c(OC4CCC(C(=O)N5CCOCC5)C4)ncnc3n2C)c1C (stereo not shown) [Compound 8-1] | 9
CCn1ncc(-c2nc3c(OC4CCC(NC(=O)C5CCOCC5)C4)ncnc3n2C)c1C [Compound 9-3, cis-N-[(1S,3R)-3-{[8-(1-ethyl-5-methyl-1H-pyrazol-4-yl)-9-methyl-9H-purin-6-yl]oxy}cyclopentyl]tetrahydro-2H-pyran-4-carboxamide] | 8
CCn1c(-c2cnc(C)nc2)nc2c(O[C@H]3C[C@@H](NC(=O)OC(C)(C)C)C3)ncnc21 [Compound 9-5, tert-butyl (cis-3-{[9-ethyl-8-(2-methylpyrimidin-5-yl)-9H-purin-6-yl]oxy}cyclobutyl)carbamate] | >10
CCn1c(-c2cnc(C)nc2)nc2c(O[C@H]3C[C@H](NC(=O)OC(C)(C)C)C3)ncnc21 [Compound 9-6, tert-butyl (trans-3-{[9-ethyl-8-(2-methylpyrimidin-5-yl)-9H-purin-6-yl]oxy}cyclobutyl)carbamate] | >10
CCC(=O)N[C@H]1CC[C@H](Oc2ncnc3c2nc(-c2cnc(C)nc2)n3CC)CC1 [Compound 9-7, N-(trans-4-{[9-ethyl-8-(2-methylpyrimidin-5-yl)-9H-purin-6-yl]oxy}cyclohexyl)propanamide] | >10
CCn1c(-c2cnc(C)nc2)nc2c(O[C@H]3CC[C@@H](NC(=O)C4CC4)CC3)ncnc21 [Compound 9-8, N-(cis-4-{[9-ethyl-8-(2-methylpyrimidin-5-yl)-9H-purin-6-yl]oxy}cyclohexyl)cyclopropane carboxamide] | >10
CCn1c(-c2cnc(C)nc2)nc2c(O[C@H]3C[C@H](NS(=O)(=O)CC)C3)ncnc21 [Compound 9-10, trans-N-(3-{[9-ethyl-8-(2-methylpyrimidin-5-yl)-9H-purin-6-yl]oxy}cyclobutyl) ethanesulfonamide] | >10
CCn1ncc(-c2nc3c(S[C@H]4CCN(C(=O)OC(C)(C)C)C4)ncnc3n2C)c1C [Compound 10-1, (S)-tert-butyl 3-((8-(1-ethyl-5-methyl-1H-pyrazol-4-yl)-9-methyl-9H-purin-6-yl)thio)pyrrolidine-1-carboxylate] | >10
CCn1ncc(-c2nc3c(S(=O)(=O)[C@H]4CCN(C(=O)OC(C)(C)C)C4)ncnc3n2C)c1C [Compound 10-2, (S)-tert-butyl 3-((8-(1-ethyl-5-methyl-1H-pyrazol-4-yl)-9-methyl-9H-purin-6-yl)sulfonyl)pyrrolidine-1-carboxylate] | 8
CCn1ncc(-c2nc3c(S[C@H]4CCN(C(=O)C5CCOCC5)C4)ncnc3n2C)c1C [Compound 10-3, (S)-(3-((8-(1-ethyl-5-methyl-1H-pyrazol-4-yl)-9-methyl-9H-purin-6-yl)thio)pyrrolidin-1-yl)(tetrahydro-2H-pyran-4-yl)methanone] | >10

SMILES | Relative Selectivity versus PI3Kalpha
CCC(=O)N1CC[C@H](Sc2ncnc3c2nc(-c2cnn(CC)c2C)n3C)C1 [Compound 10-4, (S)-1-(3-((8-(1-ethyl-5-methyl-1H-pyrazol-4-yl)-9-methyl-9H-purin-6-yl)thio)pyrrolidin-1-yl)propan-1-one] | >10
CCn1ncc(-c2nc3c(S(=O)(=O)[C@H]4CCN(C(=O)C5CCOCC5)C4)ncnc3n2C)c1C [Compound 10-5, (S)-(3-((8-(1-ethyl-5-methyl-1H-pyrazol-4-yl)-9-methyl-9H-purin-6-yl)sulfonyl)pyrrolidin-1-yl)(tetrahydro-2H-pyran-4-yl)methanone] | 5
CCC(=O)N1CC[C@H](S(=O)(=O)c2ncnc3c2nc(-c2cnn(CC)c2C)n3C)C1 [Compound 10-6, (S)-1-(3-((8-(1-ethyl-5-methyl-1H-pyrazol-4-yl)-9-methyl-9H-purin-6-yl)sulfonyl)pyrrolidin-1-yl)propan-1-one] | 5
CCn1ncc(-c2nc3c(S[C@H]4CCN(C(=O)C5CC5)C4)ncnc3n2C)c1C [Compound 10-7, (S)-cyclopropyl(3-((8-(1-ethyl-5-methyl-1H-pyrazol-4-yl)-9-methyl-9H-purin-6-yl)thio)pyrrolidin-1-yl)methanone] | >10
CCOC(=O)N1CC[C@H](Sc2ncnc3c2nc(-c2cnn(CC)c2C)n3C)C1 [Compound 10-8, (S)-ethyl 3-((8-(1-ethyl-5-methyl-1H-pyrazol-4-yl)-9-methyl-9H-purin-6-yl)thio)pyrrolidine-1-carboxylate] | >10
CCn1ncc(-c2nc3c(S[C@H]4CCN(C(=O)OCC(C)C)C4)ncnc3n2C)c1C [Compound 10-9, (S)-isobutyl 3-((8-(1-ethyl-5-methyl-1H-pyrazol-4-yl)-9-methyl-9H-purin-6-yl)thio)pyrrolidine-1-carboxylate] | >10
CCn1ncc(-c2nc3c(S[C@H]4CCN(C(=O)c5ccn(C)n5)C4)ncnc3n2C)c1C [Compound 10-10, (S)-(3-((8-(1-ethyl-5-methyl-1H-pyrazol-4-yl)-9-methyl-9H-purin-6-yl)thio)pyrrolidin-1-yl)(1-methyl-1H-pyrazol-3-yl)methanone] | >10
CCn1ncc(-c2nc3c(S[C@H]4CCN(C(=O)c5coc(C)n5)C4)ncnc3n2C)c1C [Compound 10-11, (S)-(3-((8-(1-ethyl-5-methyl-1H-pyrazol-4-yl)-9-methyl-9H-purin-6-yl)thio)pyrrolidin-1-yl)(2-methyloxazol-4-yl)methanone] | >10
CCn1ncc(-c2nc3c(S[C@H]4CCN(c5ccncn5)C4)ncnc3n2C)c1C [Compound 10-12, (S)-8-(1-ethyl-5-methyl-1H-pyrazol-4-yl)-9-methyl-6-((1-(pyrimidin-4-yl)pyrrolidin-3-yl)thio)-9H-purine] | >10
CCn1ncc(-c2nc3c(S[C@H]4CCN(c5ncnc6sccc56)C4)ncnc3n2C)c1C [Compound 10-13, (S)-4-(3-((8-(1-ethyl-5-methyl-1H-pyrazol-4-yl)-9-methyl-9H-purin-6-yl)thio)pyrrolidin-1-yl)thieno[2,3-d]pyrimidine] | >10
CCn1ncc(-c2nc3c(CC4CCN(C(=O)OC(C)(C)C)C4)ncnc3n2C)c1C (stereo not shown) [Compound 11-1, tert-butyl 3-((8-(1-ethyl-5-methyl-1H-pyrazol-4-yl)-9-methyl-9H-purin-6-yl)methyl)pyrrolidine-1-carboxylate] | >10
CCn1ncc(-c2nc3c(CC4CCN(C(=O)C5CCOCC5)C4)ncnc3n2C)c1C (stereo not shown) [Compound 11-2, (3-((8-(1-ethyl-5-methyl-1H-pyrazol-4-yl)-9-methyl-9H-purin-6-yl)methyl)pyrrolidin-1-yl)(tetrahydro-2H-pyran-4-yl)methanone] | >10
CCC(=O)N1CCC(Cc2ncnc3c2nc(-c2cnn(CC)c2C)n3C)C1 (stereo not shown) [Compound 11-3, 1-(3-((8-(1-ethyl-5-methyl-1H-pyrazol-4-yl)-9-methyl-9H-purin-6-yl)methyl)pyrrolidin-1-yl)propan-1-one] | >10
CCC(=O)N1CC[C@H](Oc2ncnc3c2nc(Oc2cccc(C)c2C)n3C)C1 [Compound 12-1, 8-(2,3-dimethylphenoxy)-9-methyl-6-{[(3S)-1-propanoylpyrrolidin-3-yl]oxy}-9H-purine] | 4
CCC(=O)N1CC[C@H](Oc2ncnc3c2nc(Oc2cc(F)cc(OC)c2)n3C)C1 [Compound 12-2, 8-(3-fluoro-5-methoxyphenoxy)-9-methyl-6-{[(3S)-1-propanoylpyrrolidin-3-yl]oxy}-9H-purine] | >10
CCC(=O)N1CC[C@H](Oc2ncnc3c2nc(Oc2cnc(C)nc2)n3C)C1 [Compound 12-3, 9-methyl-8-[(2-methylpyrimidin-5-yl)oxy]-6-{[(3S)-1-propanoylpyrrolidin-3-yl]oxy}-9H-purine] | >10
CCC(=O)N1CC[C@H](Oc2ncnc3c2nc(Oc2ccc(OC)c(F)c2)n3C)C1 [Compound 12-4, 8-(3-fluoro-4-methoxyphenoxy)-9-methyl-6-{[(3S)-1-propanoylpyrrolidin-3-yl]oxy}-9H-purine] | >10
